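How tested: cells in 96-well plates exposed to compound for 48 hours at five concentrations. GI50 marks 50% less growth. TGI is the concentration that stops growth completely.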
How the values were obtained:
Experiment in all cases: growth of human tumour cells (NCI), 48 h
[1] = tested on: 786-0 renal
[2] = tested on: A498 renal
[3] = tested on: ACHN renal
[4] = tested on: CAKI-1 renal
[5] = tested on: CCRF-CEM leukemia
[6] = tested on: COLO 205 colon
[7] = tested on: DU-145 prostate
[8] = tested on: EKVX NSCLC
[9] = tested on: HCC-2998 colon
[10] = tested on: HCT-116 colon
[11] = tested on: HCT-15 colon
[12] = tested on: HL-60(TB) leukemia
[13] = tested on: HOP-62 NSCLC
[14] = tested on: HOP-92 NSCLC
[15] = tested on: HT29 colon
[16] = tested on: IGROV1 ovarian
[17] = tested on: K-562 leukemia
[18] = tested on: LOX IMVI melanoma
[19] = tested on: M14 melanoma
[20] = tested on: MALME-3M melanoma
[21] = tested on: MCF7 breast
[22] = tested on: MDA-MB-231 breast
[23] = tested on: MDA-MB-435
[24] = tested on: NCI-H23 lung
[25] = tested on: NCI-H460 lung
[26] = tested on: NCI-H522 lung
[27] = tested on: NCI/ADR-RES ovarian
[28] = tested on: OVCAR-3 ovarian
[29] = tested on: OVCAR-4 ovarian
[30] = tested on: OVCAR-5 ovarian
[31] = tested on: OVCAR-8 ovarian
[32] = tested on: PC-3 prostate
[33] = tested on: RPMI-8226 leukemia
[34] = tested on: SF-268 CNS
[35] = tested on: SF-295 CNS
[36] = tested on: SF-539 CNS
[37] = tested on: SK-MEL-2 melanoma
[38] = tested on: SK-MEL-28 melanoma
[39] = tested on: SK-OV-3 ovarian
[40] = tested on: SN12C renal
[41] = tested on: SNB-19 CNS
[42] = tested on: SNB-75 CNS
[43] = tested on: SR leukemia
[44] = tested on: SW-620 colon
[45] = tested on: T-47D breast
[46] = tested on: TK-10 renal
[47] = tested on: U251 CNS
[48] = tested on: UACC-257 melanoma
[49] = tested on: UACC-62 melanoma
[50] = tested on: UO-31 renal
[51] = tested on: A549 NSCLC
[52] = tested on: BT-549 breast
[53] = tested on: KM12 colon
[54] = tested on: MOLT-4 leukemia
[55] = tested on: NCI-H226 lung
[56] = tested on: RXF 393 renal
[57] = tested on: SK-MEL-5 melanoma
[58] = tested on: HS 578T breast

With `Cc1ccc(/C=c2\cc3oc(=O)c4cccc(c4-3)c2=O)cc1` the TGI [1] was over 100 µM, the TGI [2] was over 100 µM and the TGI [3] was over 100 µM. It also gave a TGI [4] of over 100 µM, a TGI [5] of 68.2 µM and a TGI [6] of over 100 µM. The TGI [7] was over 100 µM, the TGI [8] was over 100 µM and the TGI [9] was over 100 µM. The TGI [10] was over 100 µM, the TGI [11] was over 100 µM and the TGI [12] was over 100 µM. For the same compound, the TGI [13] was over 100 µM, the TGI [14] was over 100 µM and the TGI [15] was over 100 µM. It also gave a TGI [16] of over 100 µM, a TGI [17] of over 100 µM and a TGI [18] of over 100 µM. The TGI [19] was over 100 µM, the TGI [20] was over 100 µM and the TGI [21] was over 100 µM. It also gave a TGI [22] of over 100 µM, a TGI [23] of over 100 µM and a TGI [24] of over 100 µM. For the same compound, the TGI [25] was over 100 µM, the TGI [26] was over 100 µM and the TGI [27] was over 100 µM. For the same compound, the TGI [28] was over 100 µM, the TGI [29] was over 100 µM and the TGI [30] was over 100 µM. It also gave a TGI [31] of over 100 µM, a TGI [32] of over 100 µM and a TGI [33] of over 100 µM. For the same compound, the TGI [34] was over 100 µM, the TGI [35] was over 100 µM and the TGI [36] was over 100 µM. For the same compound, the TGI [37] was over 100 µM, the TGI [38] was over 100 µM and the TGI [39] was over 100 µM. For the same compound, the TGI [40] was over 100 µM, the TGI [41] was over 100 µM and the TGI [42] was over 100 µM. For the same compound, the TGI [43] was over 100 µM, the TGI [44] was over 100 µM and the TGI [45] was over 100 µM. It also gave a TGI [46] of over 100 µM, a TGI [47] of over 100 µM and a TGI [48] of over 100 µM. It also gave a TGI [49] of over 100 µM and a TGI [50] of over 100 µM.
Compound `CN(C)C(=O)C(F)(F)C(c1ccccc1)C1C(=O)N(C)C(=O)N(C)C1=O` (centres undefined) has a TGI [1] of over 100 µM, a TGI [2] of over 100 µM and a TGI [51] of over 100 µM. It also gave a TGI [3] of over 100 µM, a TGI [52] of over 100 µM and a TGI [4] of over 100 µM. It also gave a TGI [5] of over 100 µM, a TGI [6] of over 100 µM and a TGI [7] of over 100 µM. The TGI [8] was over 100 µM, the TGI [9] was over 100 µM and the TGI [10] was over 100 µM. For the same compound, the TGI [11] was over 100 µM, the TGI [13] was over 100 µM and the TGI [14] was over 100 µM. For the same compound, the TGI [17] was over 100 µM, the TGI [53] was over 100 µM and the TGI [18] was over 100 µM. It also gave a TGI [19] of over 100 µM, a TGI [21] of over 100 µM and a TGI [22] of over 100 µM. The TGI [23] was over 100 µM, the TGI [54] was over 100 µM and the TGI [55] was over 100 µM. It also gave a TGI [24] of over 100 µM, a TGI [25] of over 100 µM and a TGI [27] of over 100 µM. The TGI [28] was over 100 µM, the TGI [29] was over 100 µM and the TGI [30] was over 100 µM. It also gave a TGI [31] of over 100 µM, a TGI [32] of over 100 µM and a TGI [33] of over 100 µM. For the same compound, the TGI [56] was over 100 µM, the TGI [34] was over 100 µM and the TGI [35] was over 100 µM. For the same compound, the TGI [37] was over 100 µM, the TGI [38] was over 100 µM and the TGI [57] was over 100 µM. It also gave a TGI [39] of over 100 µM, a TGI [41] of over 100 µM and a TGI [42] of over 100 µM. For the same compound, the TGI [44] was over 100 µM, the TGI [45] was over 100 µM and the TGI [46] was over 100 µM. The TGI [47] was over 100 µM, the TGI [48] was over 100 µM and the TGI [49] was over 100 µM. The TGI [50] was over 100 µM.
For `O=C1Cc2cc3ccccc3nc2-c2ccccc2N1`, the TGI [1] was over 100 µM, the TGI [2] was over 100 µM and the TGI [51] was over 100 µM. For the same compound, the TGI [3] was over 100 µM, the TGI [52] was over 100 µM and the TGI [4] was over 100 µM. For the same compound, the TGI [5] was over 100 µM, the TGI [6] was over 100 µM and the TGI [7] was over 100 µM. For the same compound, the TGI [8] was over 100 µM, the TGI [9] was 90.4 µM and the TGI [10] was 62.2 µM. It also gave a TGI [11] of over 100 µM, a TGI [12] of over 100 µM and a TGI [13] of over 100 µM. The TGI [14] was over 100 µM, the TGI [58] was over 100 µM and the TGI [15] was over 100 µM. For the same compound, the TGI [16] was over 100 µM, the TGI [17] was over 100 µM and the TGI [53] was over 100 µM. The TGI [18] was over 100 µM, the TGI [19] was over 100 µM and the TGI [20] was over 100 µM. It also gave a TGI [21] of over 100 µM, a TGI [22] of over 100 µM and a TGI [23] of over 100 µM. It also gave a TGI [54] of over 100 µM, a TGI [55] of over 100 µM and a TGI [24] of over 100 µM. The TGI [25] was over 100 µM, the TGI [26] was over 100 µM and the TGI [27] was over 100 µM. The TGI [28] was over 100 µM, the TGI [29] was over 100 µM and the TGI [30] was over 100 µM. The TGI [31] was over 100 µM, the TGI [32] was over 100 µM and the TGI [56] was over 100 µM. The TGI [34] was over 100 µM, the TGI [35] was over 100 µM and the TGI [36] was over 100 µM. It also gave a TGI [37] of over 100 µM, a TGI [38] of over 100 µM and a TGI [57] of over 100 µM. The TGI [39] was over 100 µM, the TGI [40] was over 100 µM and the TGI [41] was over 100 µM. The TGI [42] was 65.7 µM, the TGI [44] was over 100 µM and the TGI [45] was over 100 µM. The TGI [46] was over 100 µM, the TGI [47] was over 100 µM and the TGI [48] was over 100 µM. For the same compound, the TGI [49] was over 100 µM and the TGI [50] was over 100 µM.
In the case of `CCCS(=O)(=O)Nc1ccc(F)c(C(=O)c2c[nH]c3ncc(-c4ccc(OCCCC5CCCCN5)nc4)cc23)c1F` (centres undefined), the GI50 [51] is reported as over 100 µM, the TGI [51] is reported as over 100 µM and the GI50 [3] is reported as 16.9 µM. For the same compound, the TGI [3] was over 100 µM, the GI50 [8] was over 100 µM and the TGI [8] was over 100 µM. The GI50 [9] was over 100 µM, the TGI [9] was over 100 µM and the GI50 [11] was over 100 µM. For the same compound, the TGI [11] was over 100 µM, the GI50 [58] was 0.493 µM and the TGI [58] was 2.82 µM. For the same compound, the GI50 [16] was 0.865 µM, the TGI [16] was over 100 µM and the GI50 [23] was 0.03 µM. It also gave a TGI [23] of over 100 µM, a GI50 [27] of over 100 µM and a TGI [27] of over 100 µM. For the same compound, the GI50 [31] was 9.63 µM, the TGI [31] was over 100 µM and the GI50 [35] was 3.97 µM. For the same compound, the TGI [35] was over 100 µM, the GI50 [39] was 0.875 µM and the TGI [39] was over 100 µM. It also gave a GI50 [40] of 2.14 µM, a TGI [40] of over 100 µM and a GI50 [45] of 1.28 µM. For the same compound, the TGI [45] was 10.7 µM, the GI50 [46] was 7.79 µM and the TGI [46] was over 100 µM. The GI50 [48] was 0.0136 µM, the TGI [48] was 0.0967 µM and the GI50 [50] was over 100 µM. For the same compound, the TGI [50] was over 100 µM.

— PubChem BioAssay (NCI)
